Two molecules from patent US7312248B2, “Control of parasites in animals by the use of novel trifluoromethanesulfonanilide oxime ether derivatives” (Schering-Plough Animal Health Corporation, priority 2004, dated 2007) can be followed below.

The structures appear in SMILES notation. Read-outs that look alike come from different tables or passages of the source.

Common to all, as to assay type: in vivo
For data set [1], the system named is cat flea (Ctenocephalides felis). Nature of the data set: whole plant or invertebrate. The note with it: Ctenocephalides felis, Laboratory 1 A data. The method, boiled down:
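Single-dose screen at 1.26 μg/cm^2: acetone solution dried for 24 h on a Coatasil-treated 159 mm^2 flask base, then 15 adult cat fleas aged 3-7 days per flask, four or more replicates, acetone control. Percent dead, meaning not moving or unable to right themselves, recorded after 8, 24 and/or 48 h at 25 °C and 75% RH.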

The test system is the same in data set [2]. Nature of the data set: Ctenocephalides felis adulticide assay: dose response (LC50). The method, boiled down: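 Groups of 15 adult cat fleas, 3–7 days post-emergence, were exposed for 24 h at 25° C and 75% humidity to glass flask bases coated with six serial doses in acetone and dried for 24 h. Mortality was scored at 8 and 24 h, and LC50 was the surface-treatment concentration killing 50%.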

Data set [3] relates to Haemonchus contortus. Nature of the data set: Haemonchus contortus larvacidal (larval development) assay. The following applies: 144 h, read-out: Haemonchus contortus LD99. The method, boiled down:
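Nematode eggs placed on agar containing compound (12 two-fold dilutions, final 0.024–50 μg/ml) and left 6 days to develop to L3. LD99 is the lowest concentration inhibiting development of 99% of larvae, derived from well titre (2^n−1) and top concentration.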

The mark [4] stands for this setting: 8 h, read-out: C. felis Mortality (%) 8 h, 8 h.
[5] abbreviates: 24 h, read-out: C. felis Mortality (%) 24 h, 24 h.

Consider `CC/C(=N\OCc1ccc(C(F)(F)F)cc1)c1cc(Cl)ccc1NS(=O)(=O)C(F)(F)F` [Compound 9], for which the results for the mortality at 1.26 µg/cm2, 1.26 µg/cm2 in data set [1] (setting [4]) and in data set [1] (setting [5]) were 86% and 98%, respectively. Besides, the “C. felis LC50” value in data set [2] (Laboratory 1 C data) came to 0.1 μg/cm^2; in data set [2] (Laboratory 2 D data), 0.01 μg/cm^2. Further, in data set [3], the IC99 was 0.6 µg/mL.

`CC/C(=N\OCc1ccc(Cl)cc1)c1cc(Cl)ccc1NS(=O)(=O)C(F)(F)F` [Compound 11, N-{4-chloro-2-[1-(4-chlorobenzyloxyimino)propyl]phenyl}trifluoromethanesulfonamide]: the mortality at 1.26 µg/cm2, 1.26 µg/cm2 in data set [1] (setting [4]) worked out at 87%; in data set [1] (setting [5]) it was 100%. The results for the “C. felis LC50” value in data set [2] (Laboratory 1 C data) and in data set [2] (Laboratory 2 D data) were 0.1 μg/cm^2 and 0.01 μg/cm^2, respectively. The IC99 in data set [3] amounted to 0.7 µg/mL.

For orientation: mortality means the share of the test organisms that died.
